This is an account of results in publication PMC11480993, “Combining Data-Driven and Structure-Based Approaches in Designing Dual PARP1-BRD4 Inhibitors for Breast Cancer Treatment” (Journal of Chemical Information and Modeling, 2024).

Like-named read-outs stand apart in the source and are kept apart here.

The subject of assay [1] is MCF-7 cells. Put plainly: Cell viability (MTT), MCF-7. The class given is cell-based. The note with it: Homo sapiens, MCF7, 96 h; 4-day treatment, wild-type BRCA. Here is the method: MDA-MB-231, MDA-MB-436, and MCF-7 cells were seeded into 96-well plates with the number of 5 × 10^3 in each cell and allowed to incubate for 24 h. Subsequently, various concentrations of the test compounds (ranging from 100 to 0.78 μM with twice gradient dilution) were introduced. After 4 days of incubation, MTT solution was applied, and the cells were incubated for an additional 4 h. Following the removal of the supernatant, the violet crystals were dissolved in 200 μL of DMSO, and the absorbance was measured at 570 nm.

The test system of another assay is Rad51. As to the kind of experiment: Western blot, Rad51 in MCF-7 cells. The note with it: MCF-7, 48 h. The class given is cell-based. Here is the method: (§1) Following a 48 h treatment, cellular proteins were extracted using RIPA cell lysis buffer containing protease and phosphatase inhibitor cocktail. The protein concentration was assessed by using a BCA assay. Subsequently, equal amounts of these proteins were loaded onto an SDS-PAGE gel and transferred onto a PVDF membrane. The protein-loaded membrane was then blocked using a commercial blocking solution (Beyotime, China) and sequentially incubated with primary and secondary antibodies. Protein bands were visualized using an ECL chemiluminescence kit and quantified using ImageJ software.

The test system of a further assay is Caspase 3. As to the kind of experiment: Western blot, Caspase 3 in MCF-7 cells. The settings on record: MCF-7, 48 h, dose-dependent. The class given is cell-based. Here is the method:
as §1
On the technique in general: A western blot detects proteins with antibodies after separation by electrophoresis.

In the next assay the target is BRD4 BD2 (Homo sapiens, UniProt O60885). As to the kind of experiment: BRD TR-FRET assay, BRD4 BD2. The class given is binding. The protocol:
(§2) The assay was performed by TR-FRET technology using a BRD and its corresponding ligand (BET). The TR-FRET signal from the assay is correlated with the amount of ligand binding to the bromodomain. All of the binding reactions were conducted at room temperature. The 20 μL reaction mixture in Assay Buffer contains either bromodomains, BET Ligand, and the indicated amount of inhibitor. For the negative control (blank), 5 μL of the assay buffer was added instead of the BET ligand. The reaction mixture was incubated for 120 min. After the incubation with the ligand, the TR-FRET signal was measured using a Tecan Infinite M1000 plate reader.
A general note: In TR-FRET formats the signal depends on donor and acceptor labels being close together.

The subject of the next assay is cleaved Caspase 3. Put plainly: Western blot, cleaved Caspase 3 in MCF-7 cells. Format: cell-based. The note with it: MCF-7, 48 h, dose-dependent. The protocol:
as §1

Another assay concerns the target PARP1 (Homo sapiens, UniProt P09874). As to the kind of experiment: In vitro PARP1 enzymatic activity (ELISA, biotinylated NAD+, luminescence). Format: biochemical. The protocol:
The inhibition of the tested compounds on PARP1 enzymatic activity was determined by ELISA in 96-well plates. Each well was precoated with histone (20 μg/mL) diluted in 100 μL of PBS buffer (10 mM NaH2PO4, 100 mM Na2HPO4, 150 mM NaCl, pH 7.4) by incubation at 4 °C overnight. […] The reaction was initiated by the addition of 20 μL of PARP1 (50 ng/well) at 30 °C for 1 h. Then the reaction solution was added to 50 μL of streptavidin conjugated HRP. The assay was performed at 30 °C for an additional 30 min. Finally, 100 μL of solution (H2O2 and luminol in citrate buffer 0.1 M, pH 5.4) was added and luminescent signal was measured using a multiwell spectrophotometer (Molecular Devices SpectraMax M5 microplate reader).
(In general: ELISA stands for enzyme-linked immunosorbent assay.)

A further assay concerns the target BRD3 (Homo sapiens, UniProt Q15059). Put plainly: BRD TR-FRET assay, BRD3. The class given is binding. Here is the method: as §2
For assay [2], the system named is MCF-7 cells. As to the kind of experiment: Colony formation assay. Format: cell-based. The settings on record: seven-day exposure. The protocol:
The cells were placed in a 6-well plate at a density of approximately 500 cells per well and allowed to incubate for 24 h. Subsequently, the cells were exposed to the specified concentrations of test compounds and a control vehicle for a duration of 7 days. Following this treatment period, the cells were fixed using a 4% formaldehyde solution, stained with crystal violet, and then imaged.

In general, IC50 refers to the midpoint of a concentration-inhibition curve.

Chain of PARP1 (P09874 whole entry): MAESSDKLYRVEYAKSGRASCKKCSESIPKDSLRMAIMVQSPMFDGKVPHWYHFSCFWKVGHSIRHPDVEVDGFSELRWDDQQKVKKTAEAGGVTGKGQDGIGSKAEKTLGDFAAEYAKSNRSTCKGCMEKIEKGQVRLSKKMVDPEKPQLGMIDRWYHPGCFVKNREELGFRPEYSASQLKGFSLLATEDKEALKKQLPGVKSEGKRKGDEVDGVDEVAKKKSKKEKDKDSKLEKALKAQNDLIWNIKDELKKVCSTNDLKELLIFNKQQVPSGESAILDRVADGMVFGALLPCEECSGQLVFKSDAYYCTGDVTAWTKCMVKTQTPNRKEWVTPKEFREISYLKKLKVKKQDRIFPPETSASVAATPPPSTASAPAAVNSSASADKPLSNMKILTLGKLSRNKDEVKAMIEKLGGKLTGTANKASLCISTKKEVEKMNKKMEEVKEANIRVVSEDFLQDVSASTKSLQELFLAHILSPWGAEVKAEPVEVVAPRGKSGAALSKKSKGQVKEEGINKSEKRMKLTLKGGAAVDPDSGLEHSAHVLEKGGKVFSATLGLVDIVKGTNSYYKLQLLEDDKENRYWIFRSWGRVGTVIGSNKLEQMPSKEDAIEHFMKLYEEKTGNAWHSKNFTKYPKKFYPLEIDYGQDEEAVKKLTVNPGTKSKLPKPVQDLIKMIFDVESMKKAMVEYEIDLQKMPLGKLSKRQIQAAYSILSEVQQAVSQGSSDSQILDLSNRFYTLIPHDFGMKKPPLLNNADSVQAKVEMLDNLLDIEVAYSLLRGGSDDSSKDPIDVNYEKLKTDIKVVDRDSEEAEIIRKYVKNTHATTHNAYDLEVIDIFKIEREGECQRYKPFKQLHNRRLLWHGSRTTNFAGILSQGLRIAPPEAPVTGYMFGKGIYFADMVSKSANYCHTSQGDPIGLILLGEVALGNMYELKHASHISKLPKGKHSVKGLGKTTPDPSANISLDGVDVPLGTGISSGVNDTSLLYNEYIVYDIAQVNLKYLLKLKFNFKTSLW
Chain of BRD3 (Q15059 whole entry): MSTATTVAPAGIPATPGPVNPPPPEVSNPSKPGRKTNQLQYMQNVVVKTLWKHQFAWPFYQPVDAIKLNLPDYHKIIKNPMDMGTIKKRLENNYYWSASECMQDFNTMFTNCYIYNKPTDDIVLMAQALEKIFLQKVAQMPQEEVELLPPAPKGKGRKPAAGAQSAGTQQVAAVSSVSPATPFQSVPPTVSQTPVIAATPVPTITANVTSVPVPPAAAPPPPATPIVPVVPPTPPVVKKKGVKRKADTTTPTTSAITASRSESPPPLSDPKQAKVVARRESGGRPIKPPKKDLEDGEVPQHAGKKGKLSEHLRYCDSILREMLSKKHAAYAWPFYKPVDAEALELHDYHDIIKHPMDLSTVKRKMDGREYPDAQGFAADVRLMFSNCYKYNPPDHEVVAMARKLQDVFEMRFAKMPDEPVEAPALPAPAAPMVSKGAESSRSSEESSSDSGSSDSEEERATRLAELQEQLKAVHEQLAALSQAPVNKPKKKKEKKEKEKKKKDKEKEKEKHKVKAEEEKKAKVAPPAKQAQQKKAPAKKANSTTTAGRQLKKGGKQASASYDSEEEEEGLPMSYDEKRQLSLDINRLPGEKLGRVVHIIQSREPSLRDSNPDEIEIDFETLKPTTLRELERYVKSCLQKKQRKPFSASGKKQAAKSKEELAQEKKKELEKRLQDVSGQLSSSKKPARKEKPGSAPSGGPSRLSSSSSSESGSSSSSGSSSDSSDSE

On to `CCc1cc2cc(NS(=O)(=O)c3ccc(F)c(C)c3)ccc2[nH]c1=O` [HF4, N-(3-ethyl-2-oxo-1,2-dihydroquinolin-6-yl)-4-fluoro-3-methylbenzenesulfonamide], for which the IC50 is 2100 nM in the assay on MCF-7 cells [1]; 801 ± 238 nM against BRD4 BD2; 2020 ± 683 nM against PARP1; ~2000 nM on PARP1 (value of the text); 4790 ± 1360 nM against BRD3. For the same compound, the “expression of Rad51” value in the assay with Rad51 is on record as “significantly reduced”. In addition, in the assay on Caspase 3, the “Caspase 3 expression” value is reported as “significantly downregulated”. For the same compound, in the assay on cleaved Caspase 3, the “cleaved Caspase 3 expression” value was “upregulating”. On PARP1 (HF4 vs HF1), the “decrease in effectiveness against PARP1, tricyclic to bicyclic scaffold” value is recorded as “approximately 20 fold”. Also, the “ligand efficiency index against PARP1” value at PARP1 (pIC50 divided by HAC, HAC = 25) is 0.23. Moreover, the colony formation result is “marked decline in colony formation” in the assay with MCF-7 cells [2] (2 μM) and “nearly no visible colonies” in the assay on MCF-7 cells [2] (8 μM).
